Test results: US20040180925A1, “Dipeptidylpeptidase-IV inhibitor” (priority 2000, published 2004)
Structures can show the parent of a compound that is named as a salt.

Key:
[1] = molecular target: T1, DPP-IV (Rattus norvegicus, UniProt P14740); assay: Test for inhibitory action against DPP-IV (rat serum, Gly-Pro-AMC fluorescence); type: biochemical; conditions: Gly-Pro-AMC 50 μmol/L, pH 7.8, room temperature 20 minutes
T1 construct: The coagulated blood was centrifuged at 3,000 rpm for 20 minutes to separate serum for use in the experiment; from tissue; host or cells: rat serum (blood from the crural aorta, coagulated and centrifuged)
T1 sequence (P14740 37-767 limits assumed): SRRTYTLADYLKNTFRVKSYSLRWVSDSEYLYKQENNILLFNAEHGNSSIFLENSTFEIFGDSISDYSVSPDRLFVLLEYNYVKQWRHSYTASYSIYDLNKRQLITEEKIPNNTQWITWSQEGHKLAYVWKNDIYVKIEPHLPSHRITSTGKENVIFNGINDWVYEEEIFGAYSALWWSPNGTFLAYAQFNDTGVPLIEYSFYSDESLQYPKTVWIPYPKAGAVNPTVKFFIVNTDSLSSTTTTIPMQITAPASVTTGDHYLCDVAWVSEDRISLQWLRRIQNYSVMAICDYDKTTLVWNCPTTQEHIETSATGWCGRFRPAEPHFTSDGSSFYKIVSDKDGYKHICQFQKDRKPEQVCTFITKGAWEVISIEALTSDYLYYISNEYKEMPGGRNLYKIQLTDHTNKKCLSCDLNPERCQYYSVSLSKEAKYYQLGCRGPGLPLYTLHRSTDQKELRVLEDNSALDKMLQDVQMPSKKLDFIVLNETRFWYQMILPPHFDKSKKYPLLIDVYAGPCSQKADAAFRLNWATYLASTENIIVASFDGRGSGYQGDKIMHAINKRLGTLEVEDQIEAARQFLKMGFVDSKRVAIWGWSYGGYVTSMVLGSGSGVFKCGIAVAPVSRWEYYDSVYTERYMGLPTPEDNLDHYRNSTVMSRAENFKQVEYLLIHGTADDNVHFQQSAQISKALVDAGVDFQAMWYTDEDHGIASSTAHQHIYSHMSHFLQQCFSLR
Method: Under mild anesthesia with diethylether, a rat was incised at lower left side of the limb, and the crural aorta was cut and blood was collected. The collected blood was immediately ice-cooled. The coagulated blood was centrifuged at 3,000 rpm for 20 minutes to separate serum for use in the experiment. As reaction buffer, an aqueous solution containing HEPES (final concentration of 25 mmol/L) and sodium chloride (final concentration of 140 mmol/L) was prepared so as to give a final pH of 7.8, and used after addition of BSA (final concentration of 1%). An assay was conducted using a black, flat-bottomed 96 well plate. A test sample (2 μL) was added to each well, and the sample was added with rat serum (25 u L) and reaction buffer (25 u L) containing magnesium chloride (80 mmol/L), and the mixture was left stand at room temperature for 5 minutes. Then, a reaction was initiated by the addition of 50 u L of a solution of Gly-Pro-AMC (AMC: 7-amino-4-methylcoumarin) (final concentration of 50 μmol/L) to each well, and the mixture was left stand in the dark at room temperature for 20 minutes. AMC, which was released by DPP-IV activity, was quantified by measurement of fluorescence at 460 nm which was excited at 390 nm. DPP-IV activity was calculated according to the following equation:
Inhibitory activity against DPP-IV=100×{1−(Fs−F0)/(F100−F0)}
F100: Fluorescence intensity of AMC with addition of serum
F0: Fluorescence intensity of AMC without addition of serum
Fs: Fluorescence intensity of AMC with addition of a sample and serum

[2] = tested on: Wistar male rats; assay: Suppressing effect on increase of blood sugar after oral glucose loading (Test Example 2); type: in vivo, rat; conditions: Wistar male rats fasted 24 hours, 30 mg/kg po
Method: Blood-sugar levels of Wistar male rats (9-week old, Charles river) fasted for 24 hours were measured. A test compound was orally administered to the rats in a dose of […], and then immediately glucose (2 g/kg) was orally administered to the rats. After 30 minutes from the glucose loading, blood-sugar levels were further measured to evaluate suppressing effects of test compounds on increase of blood sugar. The blood-sugar levels were measured by a portable apparatus for measurement of blood sugar [Blood glucose meter, Dexter-Z (Bayer. Sankyo, Tokyo)]. The test compounds were dissolved in 0.5% methylcellulose 400 for administration. The results are shown in Table 3 (** indicates p<0.01 in Student's t-test).

[3] = tested on: Wistar male rats; assay: Suppressing effect on increase of blood sugar after oral glucose loading (Test Example 3, glucose oxidase method); type: in vivo, rat; conditions: Wistar male rats fasted 24 hours, 1 mg/kg po; for Blood-sugar level, 0 minute: 0 minute (before glucose loading); for Blood-sugar level, 30 minutes after glucose loading: glucose 2 g/kg po
Method: Blood-sugar levels of Wistar male rats (10-week old, Charles river) fasted for 24 hours were measured. A test compound was orally administered to the rats in a dose of 1 mg/kg, and then immediately glucose (2 g/kg) was orally administered to the rats. After 30 minutes from the glucose loading, blood-sugar levels were further measured to evaluate suppressing effects of test compounds on increase of blood sugar. The sugar levels were measured by the glucose oxidase method [Clin. Chem., 6, 466 (1960); J. Clin. Path., 22, 246 (1969); Clin. Chem. Acta, 40, 115 (1972); Clin. Chem., 20, 606 (1974) or the like]. The test compounds were dissolved in 0.5% methylcellulose 400 for administration.

IC50 [1] [µM]	Structure (SMILES)	also measured
0.031	N#C[C@@H]1CCCN1C(=O)CNCCNc1cnccn1 [Compound 101, (S)-1-[2-(2-Pyrazinylamino)ethylamino]acetyl-2-pyrrolidinecarbonitrile dimethanesulfonate]	blood sugar level, 0 minute ([2]; 0 minute (before glucose loading)): 68 ± 2 mg/dL; blood sugar level, 30 minutes after glucose loading ([2]; glucose 2 g/kg po, 30 minutes, ** p<0.01 Student's t-test): 104 ± 4** mg/dL
0.061	N#C[C@@H]1CCCN1C(=O)CNCCNc1cnc2ccccc2n1 [Compound 103, (S)-1-[2-(2-Quinoxalinylamino)ethylamino]acetyl-2-pyrrolidinecarbonitrile dihydrochloride]	
0.027	CC(C)(CNc1ccc(C(N)=O)cn1)NCC(=O)N1CCC[C@H]1C#N [Compound 221, (S)-1-[1-(5-Carbamoyl-2-pyridylamino)-2-methyl-2-propylamino]acetyl-2-pyrrolidinecarbonitrile]	
0.018	CC(C)(CNc1nccs1)NCC(=O)N1CCC[C@H]1C#N [Compound 226, (S)-1-[2-Methyl-1-(2-thiazolylamino)-2-propylamino]acetyl-2-pyrrolidinecarbonitrile fumarate]	
0.023	CN(C)S(=O)(=O)c1ccc(NCC(C)(C)NCC(=O)N2CCC[C@H]2C#N)nc1 [Compound 501, (S)-1-{1-[5-(N,N-Dimethylaminosulfonyl)-2-pyridylamino]-2-methyl-2-propylamino}acetyl-2-pyrrolidinecarbonitrile]	Blood-sugar level, 0 minute [3]: 95 ± 7 mg/dL; Blood-sugar level, 30 minutes after glucose loading [3]: 182 ± 16 mg/dL
0.034	CC(C)(CNc1ccc(S(=O)(=O)NCCO)cn1)NCC(=O)N1CCC[C@H]1C#N [Compound 524, (S)-1-{1-{5-[N-(2-Hydroxyethyl)aminosulfonyl]-2-pyridylamino}-2-methyl-2-propylamino}acetyl-2-pyrrolidinecarbonitrile]	
0.053	CC(C)(CNc1ccc(C#N)cc1)NCC(=O)N1CCC[C@H]1C#N [Compound 703, (S)-1-[1-(4-Cyanoanilino)-2-methyl-2-propylamino]acetyl-2-carbonitrile fumarate]	

Continued, compound first:

Structure (SMILES)	IC50 [1] [µM]	also measured
N#Cc1cccnc1NCc1ccc(CNCC(=O)N2CCC[C@H]2C#N)cc1 [Compound 201, (S)-1-{4-[(3-Cyano-2-pyridyl)aminomethyl]benzylamino}acetyl-2-pyrrolidinecarbonitrile oxalate]	0.392	
CC1(NCC(=O)N2CCC[C@H]2C#N)CCN(c2ccc(C#N)cn2)CC1 [Compound 207, (S)-1-[1-(5-Cyano-2-pyridyl)-4-methyl-4-piperidylamino]acetyl-2-pyrrolidinecarbonitrile dihydrochloride]	0.015	
CC1(NCC(=O)N2CCC[C@H]2C#N)CCN(c2ncccn2)CC1 [Compound 233, (S)-1-[4-Methyl-1-(2-pyrimidinyl)-4-piperidylamino]acetyl-2-pyrrolidinecarbonitrile]	0.019	Blood-sugar level, 0 minute [3]: 93 ± 15 mg/dL; Blood-sugar level, 30 minutes after glucose loading [3]: 183 ± 8 mg/dL
CC1(NCC(=O)N2CCC[C@H]2C#N)CCN(c2ccccn2)CC1 [Compound 238, (S)-1-[4-Methyl-1-(2-pyridyl)-4-piperidylamino]acetyl-2-pyrrolidinecarbonitrile dihydrochloride]	0.011	
N#C[C@@H]1CCCN1C(=O)CNCCNC(=O)c1ccccc1 [Compound 403, (S)-1-(2-Benzamidoethylamino)acetyl-2-pyrrolidinecarbonitrile hydrochloride]	0.124	
N#C[C@@H]1CCCN1C(=O)CNC1CCN(S(=O)(=O)c2ccccc2)CC1 [Compound 407, (S)-1-(1-Benzenesulfonyl-4-piperidylamino)acetyl-2-carbonitrile methanesulfonate]	0.02	
CCN(C)S(=O)(=O)c1ccc(NCC(C)(C)NCC(=O)N2CCC[C@H]2C#N)nc1 [Compound 513, (S)-1-{1-[5-(N-Ethyl-N-methylaminosulfonyl)-2-pyridylamino]-2-methyl-2-propylamino}acetyl-2-pyrrolidinecarbonitrile]		Blood-sugar level, 0 minute [3]: 109 ± 6 mg/dL; Blood-sugar level, 30 minutes after glucose loading [3]: 252 ± 22 mg/dL
CC1(NCC(=O)N2CCC[C@H]2C#N)CCN(c2ccc(S(=O)(=O)N3CC=CC3)cn2)CC1 [Compound 529, (S)-1-{4-Methyl-1-[5-(3-pyrrolin-1-ylsulfonyl)-2-pyridyl]-4-piperidylamino}acetyl-2-pyrrolidinecarbonitrile]	0.026	
N#Cc1ccc(NCC2(NC(=O)CN3CCC[C@H]3C#N)CCCC2)nc1 [Compound 602, 1-[(5-Cyanopyridin-2-ylamino)methyl]-1-[(S)-2-cyanopyrrolidinylacetylamino]cyclopentane fumarate]	0.041	
